In patent publication US12441733B2, “Substituted 2,4-dioxotetrahydropyrimidines as intermediates in the synthesis of bruton's tyrosine kinase inhibitors” (Novartis AG, priority 2018, dated 2025):

Columns and labels:
Assay type in all cases: cell-based
TMD8 cells = assay: Resazurin cell viability (proliferation) assay in TMD8 DLBCL cells; conditions: Homo sapiens, TMD8 cells (BTK dependent), 72 h, 50% growth inhibition vs vehicle, read-out: TMD8 Prol GI50
Procedure, shortened: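 TMD8 cells were seeded at 1×10^4 per well and treated 3 h later with compound, in an 8-point 1:4 dilution series starting at 1 μM, or DMSO, for 72 h at 37° C. Resazurin was added at 13 μg/ml final for the last 2 h, and fluorescence was read at ex 530/em 600 nm. GI50 versus vehicle was derived by curve fitting from triplicates.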

BTK-GFP = target: T1, BTK-GFP (Homo sapiens, UniProt Q06187+Q96SW2); assay: BTK-GFP protein abundance flow cytometry assay in HEK293A cells; conditions: HEK293A BTK-GFP-iresRFP cells, 24 h; for DC50: GFP signal by flow cytometry, concentration at which 50% maximal degradation was observed; for BTK deg Amax: % protein remaining at the concentration at which maximum degradation is seen
T1 construct: expressed in transfected cells; host or cells: HEK293A (Invitrogen R70507), lentiviral transduction with pLenti6-BTK-GFP-Ires-RFP, blasticidin selection
Procedure, shortened: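 HEK293A cells stably expressing bicistronic BTK-GFP-IRES-RFP (C-terminal GFP tag) via lentiviral vector. Degradation read by flow cytometry as loss of GFP signal after degrader treatment. DC50 is concentration giving 50% maximal degradation; Amax is % protein remaining at maximal degradation.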

OCI-LY3 cells = assay: Resazurin cell viability (proliferation) assay in OCI-LY3 DLBCL cells; conditions: Homo sapiens, OCI-LY3 cells (BTK independent), 72 h, 50% growth inhibition vs vehicle, read-out: OCI-LY3 Prol GI50
Procedure, shortened: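 Cells were seeded at 1×10^4 per well and dosed 3 h later: 8-point 1:4 dilutions from 10 μM (OCI-LY3), in triplicate, 72 h at 37 °C. Resazurin (13 μg/ml final) was added for the last 2 h and fluorescence read at 530/600 nm. GI50 is relative to DMSO vehicle, typically from ≥2 independent experiments.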

T1 sequence (Q06187 whole entry): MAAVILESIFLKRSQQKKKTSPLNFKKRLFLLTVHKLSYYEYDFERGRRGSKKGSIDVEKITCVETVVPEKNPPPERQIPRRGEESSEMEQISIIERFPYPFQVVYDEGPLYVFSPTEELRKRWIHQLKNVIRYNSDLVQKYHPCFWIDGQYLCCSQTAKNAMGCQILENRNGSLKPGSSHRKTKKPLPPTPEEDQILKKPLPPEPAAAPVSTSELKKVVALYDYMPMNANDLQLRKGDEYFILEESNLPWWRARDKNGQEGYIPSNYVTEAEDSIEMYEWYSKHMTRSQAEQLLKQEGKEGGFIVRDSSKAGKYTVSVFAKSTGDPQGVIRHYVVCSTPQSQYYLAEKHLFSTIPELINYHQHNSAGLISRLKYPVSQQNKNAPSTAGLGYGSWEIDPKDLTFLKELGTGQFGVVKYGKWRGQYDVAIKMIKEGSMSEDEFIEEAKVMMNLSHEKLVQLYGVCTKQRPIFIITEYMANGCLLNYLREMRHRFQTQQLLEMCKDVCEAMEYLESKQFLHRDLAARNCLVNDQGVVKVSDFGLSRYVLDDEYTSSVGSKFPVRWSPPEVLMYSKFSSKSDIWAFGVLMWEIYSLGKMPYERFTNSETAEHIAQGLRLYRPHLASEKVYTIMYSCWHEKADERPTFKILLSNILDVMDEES
T1 sequence (Q96SW2 whole entry): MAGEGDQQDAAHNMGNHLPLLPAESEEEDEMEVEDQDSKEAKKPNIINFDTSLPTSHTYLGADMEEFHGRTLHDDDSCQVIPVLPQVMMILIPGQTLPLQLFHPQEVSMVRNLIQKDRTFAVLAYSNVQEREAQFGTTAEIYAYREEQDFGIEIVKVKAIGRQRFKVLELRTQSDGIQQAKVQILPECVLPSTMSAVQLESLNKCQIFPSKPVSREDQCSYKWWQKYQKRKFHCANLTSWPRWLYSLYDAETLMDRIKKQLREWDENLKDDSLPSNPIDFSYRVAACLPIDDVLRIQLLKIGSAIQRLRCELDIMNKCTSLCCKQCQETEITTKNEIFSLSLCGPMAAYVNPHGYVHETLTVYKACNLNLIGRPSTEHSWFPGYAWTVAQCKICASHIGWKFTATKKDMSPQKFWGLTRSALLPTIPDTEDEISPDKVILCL
T1 sequence (Q16531 whole entry partner): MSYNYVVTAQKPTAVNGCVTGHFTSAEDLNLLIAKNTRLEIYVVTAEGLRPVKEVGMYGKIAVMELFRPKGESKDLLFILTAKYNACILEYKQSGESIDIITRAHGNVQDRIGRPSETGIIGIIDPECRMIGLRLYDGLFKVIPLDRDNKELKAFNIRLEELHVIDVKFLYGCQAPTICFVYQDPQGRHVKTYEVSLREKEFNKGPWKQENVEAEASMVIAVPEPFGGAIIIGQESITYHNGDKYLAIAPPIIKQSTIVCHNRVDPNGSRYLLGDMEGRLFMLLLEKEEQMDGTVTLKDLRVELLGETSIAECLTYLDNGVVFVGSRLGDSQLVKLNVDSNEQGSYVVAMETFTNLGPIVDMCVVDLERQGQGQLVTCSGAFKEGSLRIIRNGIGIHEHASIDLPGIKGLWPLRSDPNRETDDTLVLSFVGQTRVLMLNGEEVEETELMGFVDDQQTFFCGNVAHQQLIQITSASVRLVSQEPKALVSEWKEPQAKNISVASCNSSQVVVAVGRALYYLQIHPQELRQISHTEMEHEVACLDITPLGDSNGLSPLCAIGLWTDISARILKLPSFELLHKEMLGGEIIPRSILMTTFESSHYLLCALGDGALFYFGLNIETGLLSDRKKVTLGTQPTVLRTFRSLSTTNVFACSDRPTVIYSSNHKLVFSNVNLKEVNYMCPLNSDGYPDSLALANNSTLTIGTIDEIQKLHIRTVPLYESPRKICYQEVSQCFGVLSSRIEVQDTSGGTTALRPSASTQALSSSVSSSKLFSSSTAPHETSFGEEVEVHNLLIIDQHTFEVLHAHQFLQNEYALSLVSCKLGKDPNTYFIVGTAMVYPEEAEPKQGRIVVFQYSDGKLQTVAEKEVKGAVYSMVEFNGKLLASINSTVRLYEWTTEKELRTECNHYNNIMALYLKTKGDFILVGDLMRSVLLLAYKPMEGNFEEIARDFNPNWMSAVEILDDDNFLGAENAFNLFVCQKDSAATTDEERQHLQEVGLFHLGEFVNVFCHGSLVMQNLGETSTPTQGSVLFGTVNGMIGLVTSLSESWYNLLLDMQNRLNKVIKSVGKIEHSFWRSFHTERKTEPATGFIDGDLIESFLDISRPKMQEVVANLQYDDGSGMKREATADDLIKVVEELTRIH

| Compound | GI50 (TMD8 cells) [nM] | DC50 (BTK-GFP) [nM] | BTK deg Amax (BTK-GFP) [%] | GI50 (OCI-LY3 cells) [nM] |
| --- | --- | --- | --- | --- |
| COc1ccc(C(=O)N2CCN(CCNCCCOCc3ccc(-c4cc5c(-c6cc(F)cc(NC(=O)c7ccc(C(C)(C)O)cc7F)c6C)ncnc5[nH]4)cc3)CC2)cc1N1CCC(=O)NC1=O [Compound 45, N-(3-(6-(4-((3-((2-(4-(3-(2,4-dioxotetrahydropyrimidin-1(2H)-yl)-4-methoxybenzoyl)piperazin-1-yl)ethyl)amino)propoxy)methyl)phenyl)-7H-pyrrolo[2,3-d]pyrimidin-4-yl)-5-fluoro-2-methylphenyl)-2-fluoro-4-(2-hydroxypropan-2-yl)benzamide] | 19.1 | 284 | 3.2 | > 10000 |
| Cc1c(NC(=O)c2ccc(C(C)(C)O)cc2F)cc(F)cc1-c1ncnc2[nH]c(-c3ccc(CN4CCC5(CC4)CN(CCCNC(=O)c4ccc(Cl)c(N6CCC(=O)NC6=O)c4)CCO5)cc3)cc12 [Compound 48, N-(3-(6-(4-((4-(3-(4-chloro-3-(2,4-dioxotetrahydropyrimidin-1(2H)-yl)benzamido)propyl)-1-oxa-4,9-diazaspiro[5.5]undecan-9-yl)methyl)phenyl)-7H-pyrrolo[2,3-d]pyrimidin-4-yl)-5-fluoro-2-methylphenyl)-2-fluoro-4-(2-hydroxypropan-2-yl)benzamide] | 2.23 | 20.8 | 9.4 | 3600 |
| Cc1ccc(C(=O)N2CCC(OC3CCN(Cc4ccc(-c5cc6c(-c7cc(F)cc(NC(=O)c8ccc(C(C)(C)O)cc8F)c7C)ncnc6[nH]5)cc4)CC3)CC2)cc1N1CCC(=O)NC1=O [Compound 50, N-(3-(6-(4-((4-((1-(3-(2,4-dioxotetrahydropyrimidin-1(2H)-yl)-4-methylbenzoyl)piperidin-4-yl)oxy)piperidin-1-yl)methyl)phenyl)-7H-pyrrolo[2,3-d]pyrimidin-4-yl)-5-fluoro-2-methylphenyl)-2-fluoro-4-(2-hydroxypropan-2-yl)benzamide] | 0.66 | 1.2 | 4.1 | 7770 |
| COc1ccc(C(=O)N2CCC3(CCN(Cc4ccc(-c5cc6c(-c7cc(F)cc(NC(=O)c8ccc(C(C)(C)O)cc8F)c7C)ncnc6[nH]5)cc4)CC3)[C@@H](CO)C2)cc1N1CCC(=O)NC1=O (single isomer, unassigned) [Compound 2] | 3.57 | 38.5 | 4.6 | > 10000 |
| COc1ccc(C(=O)NCCN2CCC3(CCN(Cc4ccc(-c5cc6c(-c7cc(F)cc(NC(=O)c8ccc(C(C)(C)O)cc8F)c7C)ncnc6[nH]5)cc4)CC3)C2)cc1N1CCC(=O)NC1=O [Compound 53, N-(3-(6-(4-((2-(2-(3-(2,4-dioxotetrahydropyrimidin-1(2H)-yl)-4-methoxybenzamido)ethyl)-2,8-diazaspiro[4.5]decan-8-yl)methyl)phenyl)-7H-pyrrolo[2,3-d]pyrimidin-4-yl)-5-fluoro-2-methylphenyl)-2-fluoro-4-(2-hydroxypropan-2-yl)benzamide] | 3.14 | 150 | 17.4 | > 10000 |
| COc1ccc(C(=O)N2CCC(OC(CO)CN3CCC(Oc4ccc(-c5cc6c(-c7cc(F)cc(NC(=O)c8ccc(C(C)(C)O)cc8F)c7C)ncnc6[nH]5)cc4)CC3)CC2)cc1N1CCC(=O)NC1=O (racemic) [Compound 18, rac-N-(3-(6-(4-((1-(2-((1-(3-(2,4-Dioxotetrahydropyrimidin-1(2H)-yl)-4-methoxybenzoyl)piperidin-4-yl)oxyl)-3-hydroxypropyl)piperidin-4-yl)oxyl)phenyl)-7H-pyrrolo[2,3-d]pyrimidin-4-yl)-5-fluoro-2-methylphenyl)-2-fluoro-4-(2-hydroxypropan-2-yl)benzamide] | 1.58 | 10.8 | 3.4 | 4320 |
| COc1ccc(C(=O)N2CCC3(CCN(Cc4ccc(-c5cc6c(-c7cc(F)cc(NC(=O)c8ccc(C(C)(C)O)cc8F)c7C)ncnc6[nH]5)cc4)CC3)[C@H](CO)C2)cc1N1CCC(=O)NC1=O (single isomer, unassigned) [Compound 3] | 2.24 | 19.1 | 3.6 | > 10000 |
| COc1ccc(C(=O)N2CCC(CCN3CCC(OCc4ccc(-c5cc6c(-c7cc(F)cc(NC(=O)c8ccc(C(C)(C)O)cc8F)c7C)ncnc6[nH]5)cc4)CC3)CC2)cc1N1CCC(=O)NC1=O [Compound 13, N-(3-(6-(4-(((1-(2-(1-(3-(2,4-Dioxotetrahydropyrimidin-1(2H)-yl)-4-methoxybenzoyl)piperidin-4-yl)ethyl)piperidin-4-yl)oxyl)methyl)phenyl)-7H-pyrrolo[2,3-d]pyrimidin-4-yl)-5-fluoro-2-methylphenyl)-2-fluoro-4-(2-hydroxypropan-2-yl)benzamide] | 0.18 | 0.8 | 1.8 | 3390 |
| Cc1cc(F)c(C(=O)N(C)CCCCCNCc2ccc(-c3cc4c(-c5cc(F)cc(NC(=O)c6ccc(C(C)(C)O)cc6F)c5C)ncnc4[nH]3)cc2)cc1N1CCC(=O)NC1=O [Compound 28, 5-(2,4-Dioxotetrahydropyrimidin-1(2H)-yl)-2-fluoro-N-(5-((4-(4-(5-fluoro-3-(2-fluoro-4-(2-hydroxypropan-2-yl)benzamido)-2-methylphenyl)-7H-pyrrolo[2,3-d]pyrimidin-6-yl)benzyl)amino)pentyl)-N,4-dimethylbenzamide] | 7.16 | 93.7 | 12.1 | 6120 |
| COc1ccc(C(=O)N2CCC(CCN3CCC(COc4ccc(-c5cc6c(-c7cc(F)cc(NC(=O)c8ccc(C(C)(C)O)cc8F)c7C)ncnc6[nH]5)cc4)CC3)CC2)cc1N1CCC(=O)NC1=O [Compound 43, N-(3-(6-(4-((1-(2-(1-(3-(2,4-dioxotetrahydropyrimidin-1(2H)-yl)-4-methoxybenzoyl)piperidin-4-yl)ethyl)piperidin-4-yl)methoxy)phenyl)-7H-pyrrolo[2,3-d]pyrimidin-4-yl)-5-fluoro-2-methylphenyl)-2-fluoro-4-(2-hydroxypropan-2-yl)benzamide] | 0.68 | 1 | 2.3 | 3340 |
| COc1ccc(C(=O)NCCCCN2CCN(Cc3ccc(-c4cc5c(-c6cc(F)cc(NC(=O)c7ccc(C(C)(C)O)cc7F)c6C)ncnc5[nH]4)cc3)CC2)cc1N1CCC(=O)NC1=O [Compound 26, N-(3-(6-(4-((4-(4-(3-(2,4-Dioxotetrahydropyrimidin-1(2H)-yl)-4-methoxybenzamido)butyl)piperazin-1-yl)methyl)phenyl)-7H-pyrrolo[2,3-d]pyrimidin-4-yl)-5-fluoro-2-methylphenyl)-2-fluoro-4-(2-hydroxypropan-2-yl)benzamide] | 1.92 | 25 | 4.3 | 4760 |
| COc1ccc(C(=O)NCCN2CCC3(CC2)CCN(Cc2ccc(-c4cc5c(-c6cc(F)cc(NC(=O)c7ccc(C(C)(C)O)cc7F)c6C)ncnc5[nH]4)cc2)C3)cc1N1CCC(=O)NC1=O [Compound 35, N-(3-(6-(4-((8-(2-(3-(2,4-Dioxotetrahydropyrimidin-1(2H)-yl)-4-methoxybenzamido)ethyl)-2,8-diazaspiro[4.5]decan-2-yl)methyl)phenyl)-7H-pyrrolo[2,3-d]pyrimidin-4-yl)-5-fluoro-2-methylphenyl)-2-fluoro-4-(2-hydroxypropan-2-yl)benzamide] | 3.46 | 61.1 | 7.6 | 9160 |
